According to the supplement of paper PMC11061612:

Columns and labels:
Paclitaxel = compound: CC(=O)O[C@H]1C(=O)[C@@]2(C)[C@H]([C@H](OC(=O)c3ccccc3)[C@]3(O)C[C@H](OC(=O)[C@H](O)[C@@H](NC(=O)c4ccccc4)c4ccccc4)C(C)=C1C3(C)C)[C@]1(OC(C)=O)CO[C@@H]1C[C@@H]2O [Paclitaxel]; conditions: max 3 µM
Outline: (§1)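 Cancer cell lines were dosed for 72 hours (final DMSO typically 0.2%) after 24 hours at 37°C and 5% CO2 in 1536-well plates containing 7.5 μl DMEM/F12 or RPMI with 10% FBS. Viability came from CellTiter-Glo 2.0 luminescence, scaled between blank-well and DMSO-well means, and dose responses were fitted to a two-parameter logistic curve with a non-linear mixed effects model. The single-agent IC50 was obtained from this fit.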

Gefitinib = compound: COc1cc2ncnc(Nc3ccc(F)c(Cl)c3)c2cc1OCCCN1CCOCC1 [Gefitinib]; conditions: max 10 µM
Outline: as §1

Gemcitabine = compound: Nc1ccn([C@@H]2O[C@H](CO)[C@@H](O)C2(F)F)c(=O)n1 [Gemcitabine]; conditions: max 0.3 µM
Outline: as §1

AZD8186 = compound: C[C@@H](Nc1cc(F)cc(F)c1)c1cc(C(=O)N(C)C)cc2c(=O)cc(N3CCOCC3)oc12 [AZD8186]; conditions: max 10 µM
Outline: as §1

SN-38 = compound: CCc1c2c(nc3ccc(O)cc13)-c1cc3c(c(=O)n1C2)COC(=O)[C@]3(O)CC [SN-38]; conditions: max 0.3 µM
Outline: as §1

Etoposide = compound: COc1cc([C@@H]2c3cc4c(cc3[C@@H](O[C@@H]3O[C@@H]5CO[C@@H](C)O[C@H]5[C@H](O)[C@H]3O)[C@H]3COC(=O)[C@H]23)OCO4)cc(OC)c1O [Etoposide]; conditions: max 10 µM
Outline: as §1

Crizotinib = compound: C[C@@H](Oc1cc(-c2cnn(C3CCNCC3)c2)cnc1N)c1c(Cl)ccc(F)c1Cl [Crizotinib]; conditions: max 10 µM
Outline: as §1

AZD5153 = compound: COc1nnc2ccc(N3CCC(c4ccc(OCCN5CCN(C)C(=O)[C@H]5C)cc4)CC3)nn12 [AZD5153]; conditions: max 1 µM
Outline: as §1

Alisertib = compound: COc1cc(Nc2ncc3c(n2)-c2ccc(Cl)cc2C(c2c(F)cccc2OC)=NC3)ccc1C(=O)O [Alisertib]; conditions: max 10 µM
Outline: as §1

Venetoclax = compound: CC1(C)CCC(CN2CCN(c3ccc(C(=O)NS(=O)(=O)c4ccc(NCC5CCOCC5)c([N+](=O)[O-])c4)c(Oc4cnc5[nH]ccc5c4)c3)CC2)=C(c2ccc(Cl)cc2)C1 [Venetoclax]; conditions: max 1 µM
Outline: as §1

SRA737 = compound: N#Cc1cnc(Nc2cc(NC[C@H]3CNCCO3)c(C(F)(F)F)cn2)cn1 [SRA737]; conditions: max 10 µM
Outline: as §1

AZD5363 = compound: C1CN(CCC1(C(=O)N[C@@H](CCO)C2=CC=C(C=C2)Cl)N)C3=NC=NC4=C3C=CN4 [AZD5363]; conditions: max 10 µM
Outline: as §1

SG3199 = compound: CC1=CN2[C@@H](C1)C=NC3=CC(=C(C=C3C2=O)OC)OCCCCCOC4=C(C=C5C(=C4)N=C[C@@H]6CC(=CN6C5=O)C)OC [SG3199]; conditions: max 0.001 µM
Outline: as §1

Olaparib = compound: O=C(c1cc(Cc2n[nH]c(=O)c3ccccc23)ccc1F)N1CCN(C(=O)C2CC2)CC1 [Olaparib]; conditions: max 10 µM
Outline: as §1

Savolitinib = compound: C[C@@H](c1ccc2nccn2c1)n1nnc2ncc(-c3cnn(C)c3)nc21 [Savolitinib]; conditions: max 1 µM
Outline: as §1

5-Fluorouracil = compound: O=c1[nH]cc(F)c(=O)[nH]1 [5-Fluorouracil]; conditions: max 20 µM
Outline: as §1

Selumetinib = compound: Cn1cnc2c(F)c(Nc3ccc(Br)cc3Cl)c(C(=O)NOCCO)cc21 [Selumetinib]; conditions: max 10 µM
Outline: as §1

AZD7648 = compound: Cc1cc2ncnn2cc1Nc1ncc2c(n1)n(C1CCOCC1)c(=O)n2C [AZD7648]; conditions: max 10 µM
Outline: as §1

AZD1390 = compound: CC(C)n1c(=O)n(C)c2cnc3cc(F)c(-c4ccc(OCCCN5CCCCC5)nc4)cc3c21 [AZD1390]; conditions: max 0.3 µM
Outline: as §1

AZD4320 = compound: CN(CC[C@H](CSC1=CC=CC=C1)NC2=C(C=C(C=C2)S(=O)(=O)NC(=O)C3=CC=C(C=C3)N4CCC(CC4)[C@H](C5=CC=CC=C5C6=CC=C(C=C6)Cl)O)S(=O)(=O)C(F)(F)F)CCO [AZD4320]; conditions: max 1 µM
Outline: as §1

AZD5991 = compound: Cc1c2c(nn1C)CSCc1cc(n(C)n1)CSc1cc(c3ccccc3c1)OCCCc1c(C(=O)O)n(C)c3c-2c(Cl)ccc13 [AZD5991]; conditions: max 1 µM
Outline: as §1

MK-2206 = compound: NC1(c2ccc(-c3nc4ccn5c(=O)[nH]nc5c4cc3-c3ccccc3)cc2)CCC1 [MK-2206]; conditions: max 10 µM
Outline: as §1

Doxorubicin = compound: COc1cccc2c1C(=O)c1c(O)c3c(c(O)c1C2=O)C[C@@](O)(C(=O)CO)C[C@@H]3O[C@H]1C[C@H](N)[C@H](O)[C@H](C)O1 [Doxorubicin]; conditions: max 1 µM
Outline: as §1

AZD2811 = compound: CCN(CCO)CCCOc1ccc2c(Nc3cc(CC(=O)Nc4cccc(F)c4)[nH]n3)ncnc2c1 [AZD2811]; conditions: max 1 µM
Outline: as §1

Dasatinib = compound: CC1=C(C(=CC=C1)Cl)NC(=O)C2=CN=C(S2)NC3=CC(=NC(=N3)C)N4CCN(CC4)CCO [Dasatinib]; conditions: max 2 µM
Outline: as §1

Taselisib = compound: Cc1nc(-c2cn3c(n2)-c2ccc(-c4cnn(C(C)(C)C(N)=O)c4)cc2OCC3)n(C(C)C)n1 [Taselisib]; conditions: max 10 µM
Outline: as §1

Palbociclib = compound: CC(=O)c1c(C)c2cnc(Nc3ccc(N4CCNCC4)cn3)nc2n(C2CCCC2)c1=O [Palbociclib]; conditions: max 10 µM
Outline: as §1

Carboplatin = compound: C1CC(C1)(C(=O)[O-])C(=O)[O-].N.N.[Pt+2] [Carboplatin]; conditions: max 10 µM
Outline: as §1

Trametinib = compound: CC(=O)Nc1cccc(-n2c(=O)n(C3CC3)c(=O)c3c(Nc4ccc(I)cc4F)n(C)c(=O)c(C)c32)c1 [Trametinib]; conditions: max 1 µM
Outline: as §1

Lapatinib = compound: CS(=O)(=O)CCNCc1ccc(-c2ccc3ncnc(Nc4ccc(OCc5cccc(F)c5)c(Cl)c4)c3c2)o1 [Lapatinib]; conditions: max 10 µM
Outline: as §1

Prexasertib = compound: COc1cccc(OCCCN)c1-c1cc(Nc2cnc(C#N)cn2)n[nH]1 [Prexasertib]; conditions: max 1 µM
Outline: as §1

AZD1775 = compound: C=CCn1c(=O)c2cnc(Nc3ccc(N4CCN(C)CC4)cc3)nc2n1-c1cccc(C(C)(C)O)n1 [AZD1775]; conditions: max 3 µM
Outline: as §1

[1] = compound: O=C(Nc1ccc2[nH]nc(-c3ccncc3)c2c1)[C@@H]1CCN(CC(=O)N2CCN(c3ccc(-c4ncccn4)cc3)CC2)C1; conditions: max 5 µM
Outline: as §1

AZD6738 = compound: C[C@@H]1COCCN1C2=NC(=NC(=C2)C3(CC3)[S@](=N)(=O)C)C4=C5C=CNC5=NC=C4 [AZD6738]; conditions: max 10 µM
Outline: as §1

AZD0156 = compound: CN(C)CCCOc1ccc(-c2ccc3ncc4c(c3c2)n(C2CCOCC2)c(=O)n4C)cn1 [AZD0156]; conditions: max 3 µM
Outline: as §1

Cell Line | IC50, cell viability 72 h (Paclitaxel) [nM] | IC50, cell viability 72 h (Gefitinib) [nM] | IC50, cell viability 72 h (Gemcitabine) [nM] | IC50, cell viability 72 h (AZD8186) [nM] | IC50, cell viability 72 h (SN-38) [nM] | IC50, cell viability 72 h (Etoposide) [nM] | IC50, cell viability 72 h (Crizotinib) [nM] | IC50, cell viability 72 h (AZD5153) [nM] | IC50, cell viability 72 h (Alisertib) [nM] | IC50, cell viability 72 h (Venetoclax) [nM] | IC50, cell viability 72 h (SRA737) [nM] | IC50, cell viability 72 h (AZD5363) [nM] | IC50, cell viability 72 h (SG3199) [nM] | IC50, cell viability 72 h (Olaparib) [nM] | IC50, cell viability 72 h (Savolitinib) [nM] | IC50, cell viability 72 h (5-Fluorouracil) [nM] | IC50, cell viability 72 h (Selumetinib) [nM] | IC50, cell viability 72 h (AZD7648) [nM] | IC50, cell viability 72 h (AZD1390) [nM] | IC50, cell viability 72 h (AZD4320) [nM] | IC50, cell viability 72 h (AZD5991) [nM] | IC50, cell viability 72 h (MK-2206) [nM] | IC50, cell viability 72 h (Doxorubicin) [nM] | IC50, cell viability 72 h (AZD2811) [nM] | IC50, cell viability 72 h (Dasatinib) [nM] | IC50, cell viability 72 h (Taselisib) [nM] | IC50, cell viability 72 h (Palbociclib) [nM] | IC50, cell viability 72 h (Carboplatin) [nM] | IC50, cell viability 72 h (Trametinib) [nM] | IC50, cell viability 72 h (Lapatinib) [nM] | IC50, cell viability 72 h (Prexasertib) [nM] | IC50, cell viability 72 h (AZD1775) [nM] | IC50, cell viability 72 h [1] [nM] | IC50, cell viability 72 h (AZD6738) [nM] | IC50, cell viability 72 h (AZD0156) [nM]
CAL-148 (Breast Carcinoma) | 45.2 | > 10000 | 29.9 | > 10000 | 2.5 | 590 | > 10000 | 803 | 1330 | > 1000 | > 10000 | 274 | > 1 | > 10000 | > 1000 | > 20000 | > 10000 | > 10000 | > 300 | > 1000 | > 1000 | 1380 | 54.9 | 26.2 | > 2000 | 241 | > 10000 | > 10000 | > 1000 | > 10000 | 234 | 206 | > 5000 | 3820 | > 3000
CCRF-CEM (T-Lymphoblastic Leukemia) | 4.87 | > 10000 | 32.6 | > 10000 | 1.91 | 202 | 1550 | 523 | 73.7 | > 1000 | 770 | 7970 | > 1 | > 10000 | > 1000 | > 20000 | > 10000 | > 10000 | > 300 | 55.2 | > 1000 | 3980 | 62.6 | 6.51 | > 2000 | 7250 | 1950 | > 10000 | > 1000 | > 10000 | 3.26 | 134 | > 5000 | 992 | > 3000
CaR-1 (Colorectal Carcinoma) | 171 | > 10000 | 228 | > 10000 | 28.2 | > 10000 | > 10000 | > 1000 | > 10000 | > 1000 | > 10000 | > 10000 | > 1 | > 10000 | > 1000 | > 20000 | > 10000 | > 10000 | > 300 | > 1000 | > 1000 | > 10000 | 957 | > 1000 | > 2000 | 6550 | > 10000 | > 10000 | > 1000 | > 10000 | 279 | > 3000 | > 5000 | > 10000 | > 3000
Calu-3 (Lung Adenocarcinoma) | > 3000 | 3730 | > 300 | > 10000 | > 300 | 5550 | > 10000 | 337 | > 10000 | > 1000 | > 10000 | > 10000 | > 1 | > 10000 | > 1000 | > 20000 | > 10000 | > 10000 | > 300 | > 1000 | > 1000 | > 10000 | > 1000 | > 1000 | > 2000 | 2790 | > 10000 | > 10000 | > 1000 | 1780 | > 1000 | 2890 | > 5000 | > 10000 | > 3000
DoTc2-4510 (Cervical Carcinoma) | 456 | > 10000 | > 300 | > 10000 | 9.33 | > 10000 | > 10000 | > 1000 | > 10000 | > 1000 | > 10000 | > 10000 | > 1 | > 10000 | > 1000 | > 20000 | > 10000 | > 10000 | > 300 | > 1000 | > 1000 | > 10000 | 518 | > 1000 | > 2000 | 4860 | > 10000 | > 10000 | > 1000 | > 10000 | 59.5 | 2900 | > 5000 | > 10000 | > 3000
